Experimental data published in PubChem BioAssay (NCI).
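All cell lines were grown in 96-well plates and treated with compound for 48 hours. Definition used: TGI = concentration required for complete inhibition of growth.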

Key:
Experiment in all cases: NCI tumour cell line growth inhibition, 48 h
HOP-92 NSCLC = system: HOP-92 NSCLC
NCI-H460 lung = system: NCI-H460 lung
M14 melanoma = system: M14 melanoma
UO-31 renal = system: UO-31 renal
ACHN renal = system: ACHN renal
NCI-H23 lung = system: NCI-H23 lung
SK-MEL-5 melanoma = system: SK-MEL-5 melanoma
HCT-116 colon = system: HCT-116 colon
RPMI-8226 leukemia = system: RPMI-8226 leukemia
SK-MEL-2 melanoma = system: SK-MEL-2 melanoma
OVCAR-5 ovarian = system: OVCAR-5 ovarian
HL-60(TB) leukemia = system: HL-60(TB) leukemia
TK-10 renal = system: TK-10 renal
OVCAR-4 ovarian = system: OVCAR-4 ovarian
SF-295 CNS = system: SF-295 CNS
CAKI-1 renal = system: CAKI-1 renal
SF-268 CNS = system: SF-268 CNS
NCI/ADR-RES ovarian = system: NCI/ADR-RES ovarian
BT-549 breast = system: BT-549 breast
MDA-MB-231 breast = system: MDA-MB-231 breast

COC(=O)C12OCC34C(CC5C(C)C6=CC(=O)OC6=CC5(C)C3C(O)C1O)OC(=O)C(OC(C)=O)C24 (configuration not stated)
TGI (HOP-92 NSCLC): 35.2 µM | TGI (NCI-H460 lung): 51.8 µM | TGI (M14 melanoma): 32.8 µM | TGI (UO-31 renal): 46 µM | TGI (ACHN renal): 38.9 µM | TGI (NCI-H23 lung): 32.5 µM | TGI (SK-MEL-5 melanoma): 24.9 µM | TGI (HCT-116 colon): 37.2 µM | TGI (RPMI-8226 leukemia): 40.5 µM | TGI (SK-MEL-2 melanoma): 21 µM | TGI (OVCAR-5 ovarian): 44.2 µM | TGI (HL-60(TB) leukemia): 33.3 µM | TGI (TK-10 renal): 31.4 µM | TGI (OVCAR-4 ovarian): 41.2 µM | TGI (SF-295 CNS): 65.7 µM | TGI (CAKI-1 renal): 25.2 µM | TGI (SF-268 CNS): 40.1 µM

Cc1ccc([N+]2=NC(c3ccc([N+](=O)[O-])cc3)=NN(c3ccccc3)C2)cc1
TGI (NCI-H460 lung): > 100 µM | TGI (UO-31 renal): > 100 µM | TGI (ACHN renal): > 100 µM | TGI (NCI-H23 lung): > 100 µM | TGI (SK-MEL-5 melanoma): > 100 µM | TGI (HCT-116 colon): > 100 µM | TGI (RPMI-8226 leukemia): > 100 µM | TGI (OVCAR-5 ovarian): > 100 µM | TGI (HL-60(TB) leukemia): > 100 µM | TGI (TK-10 renal): > 100 µM | TGI (OVCAR-4 ovarian): 49 µM | TGI (SF-295 CNS): > 100 µM | TGI (SF-268 CNS): > 100 µM

Cc1nc2ccc(F)cc2c2c1CCN2c1ccccc1
TGI (HOP-92 NSCLC): 37.8 µM | TGI (NCI-H460 lung): 36.1 µM | TGI (UO-31 renal): 68.1 µM | TGI (ACHN renal): 67 µM | TGI (NCI/ADR-RES ovarian): 68 µM | TGI (NCI-H23 lung): 52.9 µM | TGI (BT-549 breast): 44.2 µM | TGI (SK-MEL-5 melanoma): 26.8 µM | TGI (HCT-116 colon): 23.2 µM | TGI (RPMI-8226 leukemia): 37.1 µM | TGI (HL-60(TB) leukemia): 24.6 µM | TGI (TK-10 renal): 71.5 µM | TGI (OVCAR-4 ovarian): > 100 µM | TGI (SF-295 CNS): 34.4 µM | TGI (SF-268 CNS): > 100 µM

CC(/C=C/c1ccccc1)=N\N=C(C)\C=C\c1ccccc1
TGI (NCI-H460 lung): > 100 µM | TGI (M14 melanoma): > 100 µM | TGI (ACHN renal): > 100 µM | TGI (NCI-H23 lung): > 100 µM | TGI (SK-MEL-5 melanoma): > 100 µM | TGI (HCT-116 colon): > 100 µM | TGI (RPMI-8226 leukemia): > 100 µM | TGI (SK-MEL-2 melanoma): > 100 µM | TGI (OVCAR-5 ovarian): > 100 µM | TGI (HL-60(TB) leukemia): > 100 µM | TGI (TK-10 renal): > 100 µM | TGI (OVCAR-4 ovarian): > 100 µM | TGI (SF-295 CNS): > 100 µM | TGI (SF-268 CNS): > 100 µM

CCN1C(=O)/C(=C\c2coc3ccccc3c2=O)SC1=S
TGI (HOP-92 NSCLC): > 100 µM | TGI (NCI-H460 lung): > 100 µM | TGI (M14 melanoma): > 100 µM | TGI (UO-31 renal): > 100 µM | TGI (ACHN renal): > 100 µM | TGI (NCI-H23 lung): > 100 µM | TGI (SK-MEL-5 melanoma): > 100 µM | TGI (HCT-116 colon): > 100 µM | TGI (RPMI-8226 leukemia): > 100 µM | TGI (SK-MEL-2 melanoma): > 100 µM | TGI (OVCAR-5 ovarian): > 100 µM | TGI (HL-60(TB) leukemia): > 100 µM | TGI (TK-10 renal): > 100 µM | TGI (OVCAR-4 ovarian): > 100 µM | TGI (SF-295 CNS): > 100 µM | TGI (CAKI-1 renal): > 100 µM | TGI (SF-268 CNS): > 100 µM

Cc1ccc(N/C(=C(/C(Cl)=C(Cl)Cl)[N+](=O)[O-])n2nnc3ccccc32)cc1
TGI (NCI-H460 lung): 34.4 µM | TGI (M14 melanoma): 31.7 µM | TGI (UO-31 renal): 30.2 µM | TGI (ACHN renal): 44.9 µM | TGI (NCI/ADR-RES ovarian): 69.5 µM | TGI (NCI-H23 lung): 43.8 µM | TGI (BT-549 breast): 37.6 µM | TGI (HCT-116 colon): 75.5 µM | TGI (RPMI-8226 leukemia): 64.8 µM | TGI (SK-MEL-2 melanoma): 35.5 µM | TGI (OVCAR-5 ovarian): 41 µM | TGI (OVCAR-4 ovarian): 39.6 µM | TGI (SF-295 CNS): 36.7 µM | TGI (CAKI-1 renal): 31.6 µM | TGI (SF-268 CNS): 36.8 µM

O=S(Nc1ccccc1)c1ccccc1Oc1ccccc1 (configuration not stated)
TGI (NCI-H460 lung): > 100 µM | TGI (M14 melanoma): > 100 µM | TGI (UO-31 renal): > 100 µM | TGI (ACHN renal): > 100 µM | TGI (NCI/ADR-RES ovarian): > 100 µM | TGI (MDA-MB-231 breast): > 100 µM | TGI (NCI-H23 lung): > 100 µM | TGI (SK-MEL-5 melanoma): > 100 µM | TGI (HCT-116 colon): > 100 µM | TGI (RPMI-8226 leukemia): > 100 µM | TGI (OVCAR-5 ovarian): > 100 µM | TGI (HL-60(TB) leukemia): > 100 µM | TGI (TK-10 renal): > 100 µM | TGI (SF-295 CNS): > 100 µM | TGI (CAKI-1 renal): > 100 µM | TGI (SF-268 CNS): 62 µM
